System: Mus musculus
Assay: Effective dose of the intraperitoneally administered compound causing loss of traction reflex, was tested in N-methyl-D-aspartic acid convulsions model
Format: functional
Conditions: ip

SMILES | ED50 [mg/kg]
O=C(O)C1CN(CCCP(=O)(O)O)CCN1 (stereo not drawn) | 6.1
O=C(O)[C@H]1C[C@@H](/C=C/CP(=O)(O)O)CCN1 | 1.9
CC([C@H]1CCN[C@@H](C(=O)O)C1)P(=O)(O)O (stereo partly drawn) | 64
C[C@@H]1C[C@H](CP(=O)(O)O)C[C@H](C(=O)O)N1 | 84
O=C(O)[C@H]1C[C@H](/C=C/CP(=O)(O)O)CCN1 | 14
C[C@H]1CN[C@@H](C(=O)O)C[C@H]1CP(=O)(O)O | 29
O=C(O)[C@H]1C[C@H](C/C=C/P(=O)(O)O)CCN1 | 20
O=C(O)[C@H]1C[C@@H](C/C=C/P(=O)(O)O)CCN1 | 14
C[C@H]1[C@@H](CP(=O)(O)O)CCN[C@H]1C(=O)O | 33
N[C@H](CCCCCP(=O)(O)O)C(=O)O | 188
O=C(O)[C@H]1C[C@@H](CCCP(=O)(O)O)CCN1 | 5.4
N[C@@H](CCCP(=O)(O)O)C(=O)O | > 154
O=C(O)[C@@H]1C[C@H](CP(=O)(O)O)CCN1 [SELFOTEL] | 5.4

System: Mus musculus
Assay: Effective dose of the intraperitoneally administered compound protecting mice against tonic seizures, was tested in N-methyl-D-aspartic acid convulsions model
Format: functional
Conditions: ip

SMILES | ED50 [mg/kg]
O=C(O)C1CN(CCCP(=O)(O)O)CCN1 (stereo not drawn) | 1.9
O=C(O)[C@H]1C[C@@H](/C=C/CP(=O)(O)O)CCN1 | 1.2
CC([C@H]1CCN[C@@H](C(=O)O)C1)P(=O)(O)O (stereo partly drawn) | 21
C[C@@H]1C[C@H](CP(=O)(O)O)C[C@H](C(=O)O)N1 | 34
O=C(O)[C@H]1C[C@H](/C=C/CP(=O)(O)O)CCN1 | 8.3
C[C@H]1CN[C@@H](C(=O)O)C[C@H]1CP(=O)(O)O | 7.1
O=C(O)[C@H]1C[C@H](C/C=C/P(=O)(O)O)CCN1 | 10
O=C(O)[C@H]1C[C@@H](C/C=C/P(=O)(O)O)CCN1 | 2.5
C[C@H]1[C@@H](CP(=O)(O)O)CCN[C@H]1C(=O)O | 26
N[C@H](CCCCCP(=O)(O)O)C(=O)O | 34
O=C(O)[C@H]1C[C@@H](CCCP(=O)(O)O)CCN1 | 2
N[C@@H](CCCP(=O)(O)O)C(=O)O | > 154
O=C(O)[C@@H]1C[C@H](CP(=O)(O)O)CCN1 [SELFOTEL] | 2.1

Target: Glutamate NMDA receptor
Assay: Inhibition of [3H]-CGS- 19755 binding to N-methyl-D-aspartate glutamate receptor in rat crude synaptic membranes
Format: cell membranes, Membrane
Conditions: not given

SMILES | IC50 [nM]
O=C(O)[C@H]1C[C@@H](/C=C/CP(=O)(O)O)CCN1 | 14
CC([C@H]1CCN[C@@H](C(=O)O)C1)P(=O)(O)O (stereo partly drawn) | 800
C[C@@H]1C[C@H](CP(=O)(O)O)C[C@H](C(=O)O)N1 | 1600
O=C(O)[C@H]1C[C@H](/C=C/CP(=O)(O)O)CCN1 | 39
C[C@H]1CN[C@@H](C(=O)O)C[C@H]1CP(=O)(O)O | 78
CC(C)([C@H]1CCN[C@@H](C(=O)O)C1)P(=O)(O)O | 1300
C[C@H]1[C@@H](CP(=O)(O)O)CCN[C@H]1C(=O)O | 1300
CN1CC[C@H](CP(=O)(O)O)C[C@@H]1C(=O)O | 28000

Results, then the compound that gave them:

IC50 [nM] | SMILES
80 | O=C(O)[C@H]1C[C@H](C/C=C/P(=O)(O)O)CCN1
72 | O=C(O)[C@H]1C[C@@H](C/C=C/P(=O)(O)O)CCN1
452 | O=C(O)[C@H]1C[C@H](CP(=O)(O)O)CCN1
105 | O=C(O)[C@H]1C[C@H](CCCP(=O)(O)O)CCN1

Target: Glutamate NMDA receptor
Assay: Inhibition of [3H]-CGS- 19755 binding to N-methyl-D-aspartic acid receptors in rat crude synaptic membranes
Format: cell membranes, Membrane
Conditions: not given

SMILES | IC50 [nM]
O=C(O)C1CN(CCCP(=O)(O)O)CCN1 (stereo not drawn) | 220
N[C@H](CCCCCP(=O)(O)O)C(=O)O | 912
N[C@@H](CCCP(=O)(O)O)C(=O)O | 350

More lines, now with the values ahead:

IC50 [nM] | SMILES
98 | O=C(O)[C@H]1C[C@@H](CCCP(=O)(O)O)CCN1
32 | O=C(O)[C@@H]1C[C@H](CP(=O)(O)O)CCN1 [SELFOTEL]

Source: ChEMBL document CHEMBL1124594, “4-(Phosphonoalkyl)- and 4-(phosphonoalkenyl)-2-piperidinecarboxylic acids: synthesis, activity at N-methyl-D-aspartic acid receptors, and anticonvulsant activity” (J Med Chem, 1989)
